Laboratory results from patent US20260043803A1, “MEANS FOR DETECTING S[…]” (ACADEMISCH ZIEKENHUIS LEIDEN (H.O.D.N. LUMC), priority 2022, published 2026).

Columns and labels:
[1] = test system: IgM antibodies; assay: Microarray, serum IgM binding to printed CAA structures, controlled human infection samples; settings: individual level, infection with 10, 20, 30 cercariae; FIG. 3-5
Excerpt: (§1) Immunopurified native schistosome CAA, synthetic di-, tetra-, hexa-, and octasaccharides with appropriate positive and negative controls were printed in triplicates onto epoxilane coated glass slides (Nexterion Slide E, Schott 1066643) with a MicroGrid robot (BioRobotics). See general methodology in (de Boer, Hokke et al. 2007).
(§2) Microarrays with fitted silicone gaskets (64 samples/slide) were reconstituted in 1×PBS and blocked for minimum one hour (PBS, 2% bovine serum albumin (Sigma-Aldrich A3059) with 50 mM ethanolamine (>99.5%, Sigma-Aldrich 411000)) on shaker. Each array washed in PBS Tween 0.05%, PBS and 30 ul serum sample 1:100 in buffer/array added for 1 hour incubation at room temperature on shaker. Arrays were then washed (as above) and 1:1000 detection antibodies added (goat anti-human IgG-Cy-3, Sigma-Aldrich C2571; goat anti-human IgM-AF647, Invitrogen, A21249) for 30 min room temperature incubation on shaker. Finally, slides were washed as above with an additional wash in milli-Q before they were spun dry and scanned (Agilent Scan Control™ 2006). For nasosorption samples, they were incubated as above with the following changes. Samples were eluted in PBS 1% BSA 0.05% Triton-X and incubated as 1:2 dilution. For detection goat anti-human IgA-Dylight 650 (Novus NBP 1-75754) was used in 500×dilution.
(§3) Microarray scan images were obtained through Agilent Feature Extraction 10.7.3.1 and imported into GenePixPro vs7. Spot morphology quality was inspected and median fluorescence intensity (MFI) values obtained per nanodot with an average of a triplicate per target used for analyses. Further data processing was done in Microsoft Excel and graphs were generated using GraphPad Prism 9.3.1.

[2] = test system: IgA antibodies; assay: Microarray, IgA binding in nasosorption samples, controlled human infection; settings: 20 cercariae, baseline and 8 weeks post infection; FIG. 10
Excerpt: as §1
as §2, with “For nasosorption samples, they were incubated as above with the following changes. Samples were eluted in PBS 1% BSA 0.05% Triton-X and incubated as 1:2 dilution. For detection goat anti-human IgA-Dylight 650 (Novus NBP 1-75754) was used in 500×dilution.” left out
(§4) Microarray scan images were obtained through Agilent Feature Extraction 10.7.3.1 and imported into GenePixPro vs7. Spot morphology quality was inspected and median fluorescence intensity (MFI) values obtained per nanodot with an average of a triplicate per target used for analyses. […]

[3] = test system: IgA antibodies; assay: Microarray, IgA binding in serum samples, controlled human infection; settings: 20 cercariae, n=7, eight weeks post infection; FIG. 9
Excerpt: as §1
Microarrays with fitted silicone gaskets (64 samples/slide) were reconstituted in 1×PBS and blocked for minimum one hour (PBS, 2% bovine serum albumin (Sigma-Aldrich A3059) with 50 mM ethanolamine (>99.5%, Sigma-Aldrich 411000)) on shaker. Each array washed in PBS Tween 0.05%, PBS and 30 ul serum sample 1:100 in buffer/array added for 1 hour incubation at room temperature on shaker. […] Finally, slides were washed as above with an additional wash in milli-Q before they were spun dry and scanned (Agilent Scan Control™ 2006). […] Samples were eluted in PBS 1% BSA 0.05% Triton-X and incubated as 1:2 dilution. […]
as §3

[4] = test system: IgG antibodies; assay: Microarray, serum IgG binding to printed CAA structures, controlled human infection samples; settings: three individual sera, FIG. 14
Excerpt: as §1
as §2, with “For nasosorption samples, they were incubated as above with the following changes. Samples were eluted in PBS 1% BSA 0.05% Triton-X and incubated as 1:2 dilution. For detection goat anti-human IgA-Dylight 650 (Novus NBP 1-75754) was used in 500×dilution.” left out
as §4

CC(=O)NC1C(O[C@@H]2OC(C(=O)O)[C@@H](O)C(O)C2O)[C@@H](O)C(CO)O[C@H]1OCC1O[C@@H](OCCCCCCN)C(NC(C)=O)C(O[C@@H]2OC(C(=O)O)[C@@H](O)C(O)C2O)[C@H]1O (stereo partly drawn) [tetrasaccharide, 6-aminohexyl 2-acetamido-2-deoxy-3-O-(β-D-glucoronic acid)-6-O-(2-acetamido-2-deoxy-3-O-(β-D-glucuronic acid)-β-D-galactopyranose)-β-D-galactopyranose]
IgM background at baseline (specificity) [1]: too high
IgM response pattern compared with native CAA [1]: a dynamic range resembling native material is starting to appear

CC(=O)NC1C(O[C@@H]2OC(C(=O)O)[C@@H](O)C(O)C2O)[C@@H](O)C(CO)O[C@H]1OCCCCCCN (stereo partly drawn) [disaccharide, 6-aminohexyl 2-acetamido-2-deoxy-3-O-(β-D-glucoronic acid)-β-D-galactopyranose]
IgM response pattern compared with native CAA [1]: not representative of CAA

CC(=O)NC1C(O[C@@H]2OC(C(=O)O)[C@@H](O)C(O)C2O)[C@@H](O)C(CO)O[C@H]1OCC1O[C@@H](OCC2O[C@@H](OCC3O[C@@H](OCCCCCCN)C(NC(C)=O)C(O[C@@H]4OC(C(=O)O)[C@@H](O)C(O)C4O)[C@H]3O)C(NC(C)=O)C(O[C@@H]3OC(C(=O)O)[C@@H](O)C(O)C3O)[C@H]2O)C(NC(C)=O)C(O[C@@H]2OC(C(=O)O)[C@@H](O)C(O)C2O)[C@H]1O (some centres unmarked) [octasaccharide]
detection of specific IgA in nasosorption samples [2]: detectable
detection of specific IgA in serum [3]: detection
IgM background at baseline (specificity) [1]: improves further

6-aminohexyl 2-acetamido-2-deoxy-3-O-(3-D-glucoronic acid)-6-O-(2-acetamido-2-deoxy-3-O-(3-D-glucuronic acid)-6-O-(2-acetamido-2-deoxy-3-O-(β-D-glucuronic acid)-6-O-(2-acetamido-2-deoxy-3-O-(3-D-glucuronic acid)-6-O-(2-acetamido-2-deoxy-3-O-(3-D-glucuronic acid)-β-D-galactopyranose)-β-D-galactopyranose)-3-D-galactopyranose-β-D-galactopyranose [CAA decasaccharide]
IgG response at week 8 after infection ([4]; 20 male S. mansoni cercariae): equal or stronger than to shorter CAA fragments
IgG pre-infection response ([4]; prior to infection): negligible
